In ChEMBL document CHEMBL1155268, “Synthesis of amyloid beta peptide 1-42 (E22Delta) click peptide: pH-triggered in situ production of its native form” (Bioorg Med Chem, 2009):
Converted amounts (≈) assume the structure as drawn.

Assay: Solubility in water by HPLC
Format: physicochemical

- solubility: 1500 µg/mL (≈ 342 µM)
Structure (SMILES): CC[C@H](C)[C@H](NC(=O)[C@H](C)NC(=O)CNC(=O)[C@H](CCCCN)NC(=O)[C@H](CC(N)=O)NC(=O)[C@H](CO)NC(=O)CNC(=O)[C@@H](NC(=O)[C@H](CC(=O)O)NC(=O)[C@H](C)NC(=O)[C@H](Cc1ccccc1)NC(=O)[C@H](Cc1ccccc1)NC(=O)[C@@H](NC(=O)[C@H](CC(C)C)NC(=O)[C@H](CCCCN)NC(=O)[C@H](CCC(N)=O)NC(=O)[C@H](Cc1cnc[nH]1)NC(=O)[C@H](Cc1cnc[nH]1)NC(=O)[C@@H](NC(=O)[C@H](CCC(=O)O)NC(=O)[C@H](Cc1ccc(O)cc1)NC(=O)CNC(=O)[C@H](CO)NC(=O)[C@H](CC(=O)O)NC(=O)[C@H](Cc1cnc[nH]1)NC(=O)[C@H](CCCNC(=N)N)NC(=O)[C@H](Cc1ccccc1)NC(=O)[C@H](CCC(=O)O)NC(=O)[C@H](C)NC(=O)[C@@H](N)CC(=O)O)C(C)C)C(C)C)C(C)C)C(=O)N[C@H](C(=O)NCC(=O)N[C@@H](CC(C)C)C(=O)N[C@@H](CCSC)C(=O)N[C@H](C(=O)NCC(=O)NCC(=O)N[C@H](C(=O)N[C@H](C(=O)N[C@H](C(=O)N[C@@H](C)C(=O)O)[C@@H](C)CC)C(C)C)C(C)C)C(C)C)[C@@H](C)CC
